# From patent US12297453B2, “Generation of norepinephrine neurons from human stem cells” (Wisconsin Alumni Research Foundation, priority 2020, dated 2025)
# Legend:
# hESC-derived NE neurons = test: NE content in supernatant of NE neuron culture by ELISA; type: cell-based, human
# Method: gRNA was designed according to Benchling. Donor plasmid was generated by NEBuilder® HiFi DNA Assembly Master Mix (NEB, E2621S). Briefly, hPSCs were digested by TrypLE Express. Gene Pulser Xcell (Bio-Rad) was used for CRISPR/Cas9 delivery. Two-million cells were electroporated with 15 μg of sgRNA plasmid (pLenti-CRISPR) with 30 μg donor plasmid. Cells were plated at ˜150,000 cells/well of 6-well plate. Starting 24 hours after electroporation, 0.5 μg/ml puromycin were added to the culture medium. After 3 days of puromycin selection, hPSCs were switched to their normal culture medium and fed every other day until approximately 1-2 weeks after electroporation when distinct colonies were established. • Cell transplantation: Small aggregates of NE neural progenitors (day 10-day 12) were collected and suspended in artificial cerebral spinal fluid (aCSF) containing Rock inhibitor (0.5 μM), at a concentration of 100,000 cells/μl. 1 μl of cells were slowly injected into the left cortex (AP=+0.0 mm, ML=+1.8 mm, DV=−1.7 mm, from skull) of adult SCID mice (8-12 weeks) that were anesthetized with 1%-2% isoflurane mixed in oxygen. • Immunocytochemistry and flow cytometry: Immunocytochemistry was performed as described previously. See Huang et al., 2016, Sci Rep, 6:32600, doi:10.1038/srep32600. In brief, cells on coverslips were fixed in 4% neutral-buffered paraformaldehyde (PFA) for 10 minutes (min) at room temperature. Following rinsing with PBS, these cells were incubated in 0.2% Triton X-100 (in phosphate buffered saline (PBS)) for 10 min followed by 10% donkey serum (in PBS) at room temperature for 1 hour (h). The cells were then incubated with primary antibodies diluted in 5% donkey serum in 0.1% Triton X100 (in PBS) at 4° C. overnight, followed by fluorescently conjugated secondary antibodies at room temperature for 30 min. The nuclei were stained with Hoechst. Images were collected with a Nikon A1 laser-scanning confocal microscope. Flow cytometry was performed using Transcription Factor Buffer Set which is designed for transcription factor staining following manufacturer's instruction. Briefly, single cells were prepared using TrypLE Express Enzyme and fixed in the fixation buffer provided by the kit at 2-8° C. for 45 min. After 3 washings with the permeable buffer, primary antibodies were added to cells for 45 min at 2-8° C. in a light-tight box. Cells were washed three times before fluorescently conjugated secondary antibodies. Second antibodies were incubated with cells for 45 minutes at 2-8° C. in a light-tight box and followed by washing three times. After the last wash, cells were suspended in washing buffer and analyzed by flow cytometry (BD LSR or BD LSRII). […]
# [1] = system: GRABNE1m sensor-expressing NE neurons; test: Fluorescence imaging of GRABNE1m sensor cells; type: cell-based, human; details: norepinephrine reuptake inhibitor treatment
# [2] = system: human ESC-derived NE neurons; test: Whole-cell patch clamp recording of spontaneous action potential firing; type: cell-based; details: 1 mM; reversed upon washing away
# Method: gRNA was designed according to Benchling. Donor plasmid was generated by NEBuilder® HiFi DNA Assembly Master Mix (NEB, E2621S). Briefly, hPSCs were digested by TrypLE Express. Gene Pulser Xcell (Bio-Rad) was used for CRISPR/Cas9 delivery. Two-million cells were electroporated with 15 μg of sgRNA plasmid (pLenti-CRISPR) with 30 μg donor plasmid. Cells were plated at ˜150,000 cells/well of 6-well plate. Starting 24 hours after electroporation, 0.5 μg/ml puromycin were added to the culture medium. After 3 days of puromycin selection, hPSCs were switched to their normal culture medium and fed every other day until approximately 1-2 weeks after electroporation when distinct colonies were established. • Cell transplantation: Small aggregates of NE neural progenitors (day 10-day 12) were collected and suspended in artificial cerebral spinal fluid (aCSF) containing Rock inhibitor (0.5 μM), at a concentration of 100,000 cells/μl. 1 μl of cells were slowly injected into the left cortex (AP=+0.0 mm, ML=+1.8 mm, DV=−1.7 mm, from skull) of adult SCID mice (8-12 weeks) that were anesthetized with 1%-2% isoflurane mixed in oxygen. • Immunocytochemistry and flow cytometry: Immunocytochemistry was performed as described previously. […] After the last wash, cells were suspended in washing buffer and analyzed by flow cytometry (BD LSR or BD LSRII). […]
# [3] = system: human NE neuron progenitor cells; details: in neural differentiation medium
# Source text: On day 5, change the medium without SB431542. […] Cells were feed daily.
Compound,NE content in the supernatants (hESC-derived NE neurons),GRABNE1m sensor intensity (extracellular norepinephrine) [1],sAP firing rate [2],yield of human TH+/DBH+ NE neurons [3]
CNCCC(Oc1ccccc1OC)c1ccccc1 (stereo not shown) [Nisoxetine],increased the NE content,increase,–,–
CNCC[C@@H](Oc1ccccc1C)c1ccccc1 [Tomoxetine],increased the NE content,increase,–,–
Clc1cccc(Cl)c1N=C1NCCN1 [Clonidine],–,–,reduced the sAP firing rating significantly,–
CCOc1ccccc1OC(c1ccccc1)C1CNCCO1 (stereo not shown) [Reboxetine],increased the NE content,increase,–,–
CNCCCC12CCC(c3ccccc31)c1ccccc12 [Maprotiline],increased the NE content,increase,–,–
Nc1ncnc2c1ncn2[C@@H]1O[C@@H]2COP(=O)(O)O[C@H]2[C@H]1O [cAMP],–,–,–,boost yield
